From patent US7189736B2, “Prodrugs of imidazopyridine derivatives” (Altana Pharma AG, priority 2000, dated 2007) come the findings set out here.

One series has as its system acid secretion of the perfused rat stomach stimulated by pentagastrin. The experiment in a line: Secretion-inhibiting action on perfused rat stomach (pentagastrin-stimulated acid secretion). The series is classed as in vivo. Conditions: Rattus norvegicus, iv, anesthetized CD rats, female, dose 3 μmol/kg i.v. An excerpt:
Testing of the Secretion-inhibiting Action on Perfused Rat Stomach
In table A below, the influence of the compounds according to the invention after intravenous administration is shown on the acid secretion of the perfused rat stomach stimulated by pentagastrin.
The abdomen of anesthetized rats (CD rats, female, 200–250 g; 1.5 g/kg of i.m. urethane) was opened after tracheotomy by a median upper abdominal incision and a PVC catheter was fixed transorally in the esophagus and a further one via the pylorus such that the ends of the tubing just still projected into the gastric lumen. The catheter leading from the pylorus led outwards via a side opening in the right abdominal wall.
After thorough rinsing (about 50–100 ml), a continuous flow of warm physiological NaCl solution (0.5 ml/min, pH 6.8–6.9; Braun-Unita I) was continuously passed through the stomach at 37° C. The pH in the effluent, in each case collected at an interval of 15 minutes, was determined (pH meter 632, glass electrode EA 147; φ 5 mm, Metrohm) and the secreted HCl was determined by titration with a freshly prepared 0.01N NaOH solution to pH 7 (Dosimat 665 Metrohm).
Gastric secretion was stimulated by continuous infusion of 1 μg/kg (=1.65 ml/h) of i.v. pentagastrin (left femoral vein) about 30 min after the end of the operation (i.e. after determination of 2 preliminary fractions). The substances to be tested were administered intravenously in 1 ml/kg of fluid volume 60 min after the start of the pentagastrin continuous infusion.
The body temperature of the animals was kept at a constant 37.8–38° C. by means of infrared irradiation and heating pads (automatic, step-free control via a rectal temperature sensor).
`COCCO[C@H]1c2ccn3c(C)c(C)nc3c2N[C@H](c2ccccc2)[C@H]1OC(C)=O` [Example 1, (7S,8R,9R)-8-Acetoxy-7-(2-methoxyethoxy)-2,3-dimethyl-9-phenyl-7,8,9,10-tetra-hydroimidazo[1,2-h][1,7]naphthyridine] returned an inhibition at 3 µmol/kg of 100%. On the same count and under the same terms, then `CO[C@@H]1c2ccn3c(C)c(C)nc3c2N[C@H](c2ccccc2)[C@H]1OC(C)=O` [Example 3, (7R,8R,9R)-8-Acetoxy-7-methoxy-2,3-dimethyl-9-phenyl-7,8,9,10-tetrahydro-imidazo[1,2-h][1,7]naphthyridine], with 100%.

Still in this series, the particulars now being: anesthetized CD rats, female, dose 3 μmol/kg i.v.
Regarding `COCCO[C@@H]1c2ccn3c(C)c(C)nc3c2N[C@H](c2ccccc2)[C@H]1OC(C)=O` [Example 2, (7R,8R,9R)-8-Acetoxy-7-(2-methoxyethoxy)-2,3-dimethyl-9-phenyl-7,8,9,1,0-tetra-hydroimidazo[1,2-h][1,7]naphthyridine], the “Inhibition of acid secretion (%)” value is listed as 100%.

System in the next series: not given
Experiment: not given
Conditions: not given
For the molecule `CO[C@@H]1c2ccn3c(C)c(C)nc3c2N[C@H](c2ccccc2)[C@H]1OC(C)=O` [Example 3, (7R,8R,9R)-8-Acetoxy-7-methoxy-2,3-dimethyl-9-phenyl-7,8,9,10-tetrahydro-imidazo[1,2-h][1,7]naphthyridine], the melting point fell in the range of 197 to 199 °C.

Molecule `CCO[C@@H]1c2ccn3c(C)c(C)nc3c2N[C@H](c2ccccc2)[C@H]1OC(C)=O` [Example 4, (7R,8R,9R)8-Acetoxy-7-ethoxy-2,3-dimethyl-9-phenyl-7,8,9,10-tetrahydroimidazo-[1,2-h][1,7]naphthyridine] showed a melting point of 182 to 184 °C.

Molecule `CCC(=O)O[C@@H]1[C@@H](c2ccccc2)Nc2c(ccn3c(C)c(C)nc23)[C@H]1OCCOC` [Example 5, (7R,8R,9R)-7-(2-Methoxyethoxy)-2,3-dimethyl-9-phenyl-8-propionyloxy-7,8,9,10-tetrahydroimidazo[1,2-h][1,7]naphthyridine] gave a melting point of 106 to 107 °C. Turning to `COCCO[C@H]1c2ccn3c(C)c(C)nc3c2N[C@H](c2ccccc2)[C@H]1OC(=O)c1ccccc1` [Example 7, (7S,8R,9R)-8-Benzoyloxy-7-(2-methoxyethoxy)-2,3-dimethyl-9-phenyl-7,8,9,10tetrahydroimidazo[1,2-h][1,7]naphthyridine], the melting point was 78 to 80 °C.

For `COCCO[C@@H]1c2ccn3c(C)c(C)nc3c2N[C@H](c2ccccc2)[C@H]1OC(=O)OC` [Example 8, (7R,8R,9R)-8-Methoxycarbonyloxy-7-(2-methoxyethoxy)-2,3-dimethyl-9-phenyl-7,8,9,10-tetrahydroimidazo[1,2-h][1,7]naphthyridine], the melting point was 176 to 177 °C. Same read-out and setting: under `CO[C@@H]1c2ccn3c(C)c(C)nc3c2N[C@H](c2ccccc2)[C@H]1OC(=O)c1ccccc1` [Example 10, (7R,8R,9R)-8-Benzoyloxy-7-methoxy-2,3-dimethyl-9-phenyl-7,8,9,10-tetrahydro-imidazo[1,2-h][1,7]naphthyridine] stands 82 to 84 °C.

`CO[C@H]1c2ccn3c(C)c(C)nc3c2N[C@H](c2ccccc2)[C@H]1OC(=O)c1ccccc1` [Example 11, (7S,8R,9R)-8-Benzoyloxy-7-methoxy-2,3-dimethyl-9-phenyl-7,8,9,10-tetrahydro-imidazo[1,2-h][1,7]naphthyridine] returned a melting point of 78 to 80 °C. The molecule `COCCO[C@@H]1c2ccn3c(C)c(C)nc3c2N[C@H](c2ccccc2)[C@H]1OC(=O)c1ccc([N+](=O)[O-])cc1` [Example 12, (7R,8R,9R)-7-(2-Methoxyethoxy)-2,3-dimethyl-8-(4-nitrobenzoyloxy)-9-phenyl-7,8,9,10-tetrahydroimidazo[1,2-h][1,7]naphthyridine] yielded a melting point of 133 to 134 °C. On to `CO[C@@H]1c2ccn3c(C)c(C)nc3c2N[C@H](c2ccccc2)[C@H]1OC(=O)c1cccc([N+](=O)[O-])c1` [Example 17, (7R,8R,9R)-7-Methoxy-2,3-dimethyl-8-(3-nitrobenzoyloxy)-9-phenyl-7,8,9,10-tetra-hydroimidazo[1,2-h][1,7]naphthyridine], for which the melting point lay in the range of 80 to 84 °C. Take `COCCO[C@H]1c2ccn3c(C)c(C)nc3c2N[C@H](c2ccccc2)[C@H]1OC(=O)c1ccc(OC)cc1` [Example 18, (7S,8R,9R)-7-(2-Methoxyethoxy)-2,3-dimethyl-8-(4-methoxybenzoyloxy)-9-phenyl-7,8,9,10-tetrahydroimidazo[1,2-h][1,7]naphthyridine]: the melting point lay within 82 to 83 °C.

`COCCO[C@@H]1c2ccn3c(C)c(C)nc3c2N[C@H](c2ccccc2)[C@H]1OC(=O)c1ccc(OC)cc1` [Example 19, (7R,8R,9R)-7-(2-Methoxyethoxy)-2,3-dimethyl-8-(4-methoxybenzoyloxy)-9-phenyl-7,8,9,10-tetrahydroimidazo[1,2-h][1,7]naphthyridine] had a melting point of 150 to 151 °C. For the molecule `COCCO[C@@H]1c2ccn3c(C)c(C)nc3c2N[C@H](c2ccccc2)[C@H]1OC(=O)CN(C)C` [Example 20, (7R,8R,9R)-7-(2-Methoxyethoxy)-2,3-dimethyl-8-(N,N-dimethylaminomethyl-carbonyloxy)-9-phenyl-7,8,9,10-tetrahydroimidazo[1,2-h][1,7]naphthyridine], the melting point was 114 to 115 °C. Same read-out and setting: then `COCCO[C@H]1c2ccn3c(C)c(C)nc3c2N[C@H](c2ccccc2)[C@H]1OC(=O)CN(C)C` [Example 21, (7S,8R,9R)-7-(2-Methoxyethoxy)-2,3-dimethyl-8-(N,N-dimethylaminomethyl-carbonyloxy)-9-phenyl-7,8,9,10-tetrahydroimidazo[1,2-h][1,7]naphthyridine], with 206 to 207 °C. Molecule `CCN(CC)C(=O)O[C@@H]1[C@@H](c2ccccc2)Nc2c(ccn3c(C)c(C)nc23)[C@@H]1OCCOC` [Example 22, (7S,8R,9R)-7-(2-Methoxyethoxy)-8-(N,N-diethylaminocarbonyloxy)-2,3-dimethyl-9-phenyl-7,8,9,10-tetrahydroimidazo[1,2-h][1,7]naphthyridine] came in with a melting point of 50 to 52 °C. On the same count and under the same terms, under `COCCO[C@@H]1c2ccn3c(C)c(C)nc3c2N[C@H](c2ccccc2)[C@H]1OC(=O)OC1CC(C)CCC1C(C)C` (stereo partly drawn) [Example 26, (7R,8R,9R)-8-[(+)-Menthyloxycarbonyloxy]-7-(2-methoxyethoxy)-2,3-dimethyl-9-phenyl-7,8,9,10-tetrahydroimidazo[1,2-h][1,7]naphthyridine] stands 127 to 129 °C; under `COCCO[C@H]1c2ccn3c(C)c(C)nc3c2N[C@H](c2ccccc2)[C@H]1OC(=O)OC1CC(C)CCC1C(C)C` (stereo partly drawn) [Example 27, (7S,8R,9R)-8-[(+)-Menthyloxycarbonyloxy]-7-(2-methoxyethoxy)-2,3-dimethyl-9-phenyl-7,8,9,10-tetrahydroimidazo[1,2-h][1,7]naphthyridine], 63 to 65 °C; under `COCC(=O)O[C@@H]1[C@@H](c2ccccc2)Nc2c(ccn3c(C)c(C)nc23)[C@@H]1OC` [Example 40, (7S,8R,9R)-2,3-Dimethyl-7-methoxy-8-methoxyacetyloxy-9-phenyl-7,8,9,10-tetrahydroimidazo[1,2-h][1,7]naphthyridine], 73 to 75 °C. Still for that read-out and setting: under `CCN(CC)C(=O)O[C@@H]1[C@@H](c2ccccc2)Nc2c(ccn3c(C)c(C)nc23)[C@H]1OC` [Example 41, (7R,8R,9R)8-(N,N-Diethylaminocarbonyloxy)-2,3-dimethyl-7-methoxy-9-phenyl 7,8,9,10-tetrahydroimidazo[1,2-h][1,7]naphthyridine] stands 123 to 124 °C. For the molecule `CCN(CC)C(=O)O[C@@H]1[C@@H](c2ccccc2)Nc2c(ccn3c(C)c(C)nc23)[C@@H]1OC` [Example 42, (7S,8R,9R)8-(N,N-Diethylaminocarbonyloxy)-2,3-dimethyl-7-methoxy-9-phenyl 7,8,9,10-tetrahydroimidazo[1,2-h][1,7]naphthyridine], the melting point fell in the range of 97 to 98 °C.

The molecule `COC(=O)O[C@@H]1[C@@H](c2ccccc2)Nc2c(ccn3c(C)c(C)nc23)[C@H]1OC` [Example 43, (7R,8R,9R)7-Methoxy-8-methoxycarbonyloxy-2,3-dimethyl-9-phenyl 7,8,9,10-tetrahydroimidazo[1,2-h][1,7]naphthyridine] came in with a melting point of 178 to 179 °C. On to `COC(=O)O[C@@H]1[C@@H](c2ccccc2)Nc2c(ccn3c(C)c(C)nc23)[C@@H]1OC` [Example 44, (7S,8R,9R)7-Methoxy-8-methoxycarbonyloxy-2,3-dimethyl-9-phenyl 7,8,9,10-tetrahydroimidazo[1,2-h][1,7]naphthyridine], for which the melting point fell in the range of 90 to 91 °C. Same read-out and setting: then `CO[C@@H]1c2ccn3c(C)c(C)nc3c2N[C@H](c2ccccc2)[C@H]1OC=O` [Example 45, (7R,8R,9R)-2,3-Dimethyl-8-formyloxy-7-methoxy-9-phenyl-7,8,9,10-tetrahydro-imidazo[1,2-h][1,7]naphthyridine], with 152 to 153 °C; and `CO[C@@H]1c2ccn3c(C)c(C)nc3c2N[C@H](c2ccccc2)[C@H]1OC(=O)c1ccccc1` [Example 47, (7R,8R,9R)-8-Benzoyloxy-2,3-dimethyl-7-methoxy-9-phenyl-7,8,9,10-tetrahydro-imidazo[1,2-h][1,7]naphthyridine], with 92 to 93 °C.

What is called inhibition is the percentage by which the read-out fell short of the control. A lower inhibition goes with little suppression. As a reminder, the melting point is the temperature, or range, at which the solid turns liquid.
